Laboratory results reported in patent publication US9308180B2, “Compositions and methods for preparation of poorly water soluble drugs with increased stability” (Abraxis BioScience, LLC, priority 2005, dated 2016).

Key:
[1] = Rate of dissolution of docetaxel forms in acetonitrile; type: physicochemical; conditions: 5 mg/mL (anhydrous basis)
Description: To compare if the different types of docetaxel material had different solubility profiles as a result of their different structures, their solubility rates were compared in the solvent acetonitrile. Acetonitrile was added to a fixed amount of docetaxel from different suppliers to obtain a concentration of 5 mg/mL (anhydrous basis). The rate at which dissolution of the different docetaxels occurred was observed. It was observed that the anhydrous docetaxels (from 2 different suppliers) dissolved completely in less than 1 minute. […] Under these further diluted conditions, the time to dissolve was between 5 and 10 minutes for the hydrated materials. A similar observation was made when using the solvent chloroform.

[2] = Stability of docetaxel forms dissolved in Tween 80; type: physicochemical; conditions: 40 mg/mL (on anhydrous basis) in Tween 80, after a few days
Description: It is well known that docetaxel is formulated with Tween 80 as a solubilizer or emulsifier for the commercial product Taxotere. The different docetaxels were dissolved in Tween 80 at a concentration of 40 mg/mL (on anhydrous basis). […] Thus, the anhydrous docetaxel is preferred in the Tween formulation. In addition it may be useful to use a Tween 80 or equivalent surfactant that is anhydrous or very low in water content as the anhydrous form of docetaxel may absorb water to form the hydrated form which could result in precipitation.

| SMILES | Dissolution (observation) [1] | Time to dissolve completely [1] | Sediment or precipitate in Tween 80 solution [2] |
| --- | --- | --- | --- |
| CC(=O)O[C@@]12CO[C@@H]1C[C@H](O)[C@@]1(C)C(=O)[C@H](O)C3=C(C)[C@@H](OC(=O)[C@H](O)[C@@H](NC(=O)OC(C)(C)C)c4ccccc4)C[C@@](O)([C@@H](OC(=O)c4ccccc4)[C@H]21)C3(C)C [partial hydrate, docetaxel hemihydrate] | did not readily dissolve | – | – |
| CC(=O)O[C@@]12CO[C@@H]1C[C@H](O)[C@@]1(C)C(=O)[C@H](O)C3=C(C)[C@@H](OC(=O)[C@H](O)[C@@H](NC(=O)OC(C)(C)C)c4ccccc4)C[C@@](O)([C@@H](OC(=O)c4ccccc4)[C@H]21)C3(C)C [anhydrous docetaxel, docetaxel] | – | less than 1 minute | no precipitate was observed |
